# Experimental data published in US20220089575A1, “FARNESOID X RECEPTOR AGONISTS AND USES THEREOF” (Metacrine, Inc., priority 2017, published 2022).
# Target: T1, hFXR (Homo sapiens, UniProt Q96RI1)
# T1 construct: expressed in transfected cells; host or cells: CV-1 cells
# T1 sequence (Q96RI1 1-486): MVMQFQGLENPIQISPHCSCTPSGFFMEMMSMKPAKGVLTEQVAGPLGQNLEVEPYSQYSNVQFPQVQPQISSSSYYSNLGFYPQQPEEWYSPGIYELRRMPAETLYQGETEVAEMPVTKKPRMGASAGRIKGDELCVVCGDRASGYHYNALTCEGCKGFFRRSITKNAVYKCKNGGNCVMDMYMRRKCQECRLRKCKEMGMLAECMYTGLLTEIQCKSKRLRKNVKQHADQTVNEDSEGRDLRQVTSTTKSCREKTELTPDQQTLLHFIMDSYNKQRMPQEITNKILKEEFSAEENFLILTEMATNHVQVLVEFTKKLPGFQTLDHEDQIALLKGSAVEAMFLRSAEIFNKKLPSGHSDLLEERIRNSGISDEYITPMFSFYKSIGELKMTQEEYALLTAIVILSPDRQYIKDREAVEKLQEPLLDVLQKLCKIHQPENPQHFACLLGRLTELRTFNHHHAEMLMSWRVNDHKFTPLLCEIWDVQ
# T1 sequence (P19793 1-462 partner): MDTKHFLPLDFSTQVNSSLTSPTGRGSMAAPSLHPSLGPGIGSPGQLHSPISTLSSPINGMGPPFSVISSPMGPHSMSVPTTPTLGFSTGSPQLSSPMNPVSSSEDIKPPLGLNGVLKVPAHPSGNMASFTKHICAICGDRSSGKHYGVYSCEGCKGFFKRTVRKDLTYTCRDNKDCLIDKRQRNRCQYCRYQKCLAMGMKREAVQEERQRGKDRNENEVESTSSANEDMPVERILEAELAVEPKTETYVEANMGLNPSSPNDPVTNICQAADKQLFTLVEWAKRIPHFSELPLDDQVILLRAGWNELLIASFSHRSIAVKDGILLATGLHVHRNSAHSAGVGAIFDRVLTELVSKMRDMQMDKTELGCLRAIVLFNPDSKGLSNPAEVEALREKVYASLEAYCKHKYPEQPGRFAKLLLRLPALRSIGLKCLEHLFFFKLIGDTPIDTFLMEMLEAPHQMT
# Experiment: In Vitro FXR Assay (TK): TK-ECRE-luc reporter in transfected CV-1 cells
# Type: cell-based
# Details: 18 hrs, luminescence, maximum efficacy of <25% of the Fexarmine control classified as '+'
# Outline: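 CV-1, transient co-transfection: hFXR + hRXR + TK-ECRE-luc + pCMX-YFP; charcoal-stripped serum. 18 h post-transfection, DMSO serial dilutions of cpd added; 18 h incubation; lysis, luminescence.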
row,SMILES,EC50
1,"COc1ncc([C@H]2CC[C@H](CN(c3cccc(-c4cnn(C5CC5)c4)c3)C(=O)[C@H]3CC[C@H](OC(=O)N4CC(O)C4)CC3)CC2)cc1Cl [Compound 7.23, trans-4-(((trans-4-(5-Chloro-6-methoxypyridin-3-yl)cyclohexyl)methyl)(3-(1-cyclopropyl-1H-pyrazol-4-yl)phenyl)carbamoyl) cyclohexyl 3-hydroxyazetidine-1-carboxylate]",≤ 250 nM
2,"COc1ccc([C@H]2CC[C@H](CN(c3cccc(-c4coc(C5CC5)n4)c3)C(=O)[C@H]3CC[C@H](OC(=O)NCCO)CC3)CC2)nc1C#N [Compound 6.55, trans-4-(((trans-4-(6-Cyano-5-methoxypyridin-2-yl)cyclohexyl)methyl)(3-(2-cyclopropyloxazol-4-yl)phenyl)carbamoyl)cyclohexyl (2-hydroxyethyl)carbamate]",≤ 250 nM
3,"COC(=O)NCC(=O)N[C@H]1CC[C@H](C(=O)N(C[C@H]2CC[C@H](c3ccc(OC)c(C)c3)CC2)c2cccc(-c3cnn(C4CC4)c3)c2)CC1 [Compound 31, Methyl (2-((trans-4-((03-(1-cyclopropyl-1H-pyrazol-4-yl)phenyl)((trans-4-(4-methoxy-3-methylphenyl)cyclohexyl)methyl)carbamoyl)cyclohexyl)amino)-2-oxoethyl)carbamate]",≤ 250 nM
4,"COc1ccc(C23CCC(CN(c4cc(-c5coc(C6CC6)n5)ccn4)C(=O)[C@H]4CC[C@H](C(=O)O)CC4)(CC2)CC3)cc1C [Compound 18.03, trans-4-((4-(2-Cyclopropyloxazol-4-yl)pyridin-2-yl)((4-(4-methoxy-3-methylphenyl)bicyclo[2.2.2]octan-1-yl)methyl)carbamoyl) cyclohexanecarboxylic acid]",≤ 250 nM
5,"COCCNC(=O)[C@H]1CC[C@H](C(=O)N(C[C@H]2CC[C@H](c3ccc(OC)c(C)c3)CC2)c2cccc(-c3cnc(OC)s3)c2)CC1 [Compound 24.04, trans-N^1-((trans-4-(4-Methoxy-3-methylphenyl)cyclohexyl)methyl)-N^4-(2-methoxyethyl)-N^1-(3-(2-methoxythiazol-5-yl)phenyl) cyclohexane-1,4-dicarboxamide]",≤ 250 nM
6,"COc1ccc([C@H]2CC[C@H](CN(c3cccc(-c4cnn(C5CC5)c4)c3)C(=O)[C@H]3CC[C@H](OC(=O)NCc4c[nH]cn4)CC3)CC2)cc1C [Compound 4.15, trans-4-((3-(1-Cyclopropyl-1H-pyrazol-4-yl)phenyl)((trans-4-(4-methoxy-3-methylphenyl)cyclohexyl)methyl)carbamoyl)cyclohexyl ((1H-imidazol-4-yl)methyl)carbamate]",≤ 250 nM
7,"CCNC(=O)O[C@H]1CC[C@H](C(=O)N(C[C@H]2CC[C@H](c3ccc(OC)c(C)n3)CC2)c2cc(-c3cnn(C(C)C)c3)ccn2)CC1 [Compound 5.25, trans-4-((4-(1-Isopropyl-1H-pyrazol-4-yl)pyridin-2-yl)((trans-4-(5-methoxy-6-methylpyridin-2-yl)cyclohexyl)methyl)carbamoyl)cyclohexyl ethylcarbamate]",≤ 250 nM
8,"CN(C)c1ccc([C@H]2CC[C@H](CN(c3cccc(-c4cnn(C5CC5)c4)c3)C(=O)[C@H]3CC[C@H](C(=O)O)CC3)CC2)cn1 [Compound 17.14, trans-4-((3-(1-Cyclopropyl-1H-pyrazol-4-yl)phenyl)((trans-4-(6-(dimethylamino)pyridin-3-yl)cyclohexyl)methyl)carbamoyl) cyclohexanecarboxylic acid]",≤ 250 nM
9,"COc1ccc([C@H]2CC[C@H](CN(c3cccc(-c4cnc(C5CC5)s4)c3)C(=O)[C@H]3CC[C@H](NC(=O)Cc4ncc[nH]4)CC3)CC2)cc1C [Compound 27.04, trans-4-(2-(1H-Imidazol-2-yl)acetamido)-N-(3-(2-cyclopropylthiazol-5-yl)phenyl)-N-((trans-4-(4-methoxy-3-methylphenyl)cyclohexyl)methyl)cyclohexanecarboxamide]",≤ 250 nM
10,"COc1ccc([C@H]2CC[C@H](CN(c3cc(-c4cnn(C(C)C)c4)ccn3)C(=O)[C@H]3CC[C@H](OC(=O)N4CC(OC)C4)CC3)CC2)cc1C#N [Compound 7.48, trans-4-(((trans-4-(3-Cyano-4-methoxyphenyl)cyclohexyl)methyl)(4-(1-isopropyl-1H-pyrazol-4-yl)pyridin-2-yl)carbamoyl)cyclohexyl 3-methoxyazetidine-1-carboxylate]",≤ 250 nM
11,"COc1ccc([C@H]2CC[C@H](CN(c3cc(-c4cnn(C5CC5)c4)ccn3)C(=O)[C@H]3CC[C@H](OC(=O)NCCO)CC3)CC2)cc1C#N [Compound 6.21, trans-4-(((trans-4-(3-Cyano-4-methoxyphenyl)cyclohexyl)methyl)(4-(1-cyclopropyl-1H-pyrazol-4-yl)pyridin-2-yl)carbamoyl)cyclohexyl (2-hydroxyethyl)carbamate]",≤ 250 nM
12,"CNC(=O)O[C@H]1CC[C@H](C(=O)N(C[C@H]2CC[C@H](c3ccc(OC)c(C)n3)CC2)c2cc(-c3cnn(C(C)C)c3)ccn2)CC1 [Compound 5.24, trans-4-((4-(1-Isopropyl-1H-pyrazol-4-yl)pyridin-2-yl)((trans-4-(5-methoxy-6-methylpyridin-2-yl)cyclohexyl)methyl)carbamoyl)cyclohexyl methylcarbamate]",≤ 250 nM
13,"COc1ccc([C@H]2CC[C@H](CN(c3cc(-c4coc(C(C)C)n4)ccn3)C(=O)[C@H]3CC[C@H](CC(=O)O)CC3)CC2)cc1C#N [Compound 21.11, 2-(trans-4-(((trans-4-(3-Cyano-4-methoxyphenyl)cyclohexyl)methyl)(4-(2-isopropyloxazol-4-yl)pyridin-2-yl)carbamoyl)cyclohexyl)acetic acid]",≤ 250 nM
14,"COC(=O)[C@H]1CC[C@H](C(=O)N(C[C@H]2CC[C@H](c3ccc(N(C)C)nc3)CC2)c2cccc(-c3cnn(C4CC4)c3)c2)CC1 [Compound 18.14, trans-Methyl 4-((3-(1-cyclopropyl-1H-pyrazol-4-yl)phenyl)((trans-4-(6-(dimethylamino)pyridin-3-yl)cyclohexyl)methyl)carbamoyl) cyclohexanecarboxylate]",≤ 250 nM
15,"CNC(=O)O[C@H]1CC[C@H](C(=O)N(C[C@H]2CC[C@H](c3ccc(OC)c(C#N)c3)CC2)c2cccc(-c3cnn(C4CC4)c3)c2)CC1 [Compound 5.14, trans-4-(((trans-4-(3-Cyano-4-methoxyphenyl)cyclohexyl)methyl)(3-(1-cyclopropyl-1H-pyrazol-4-yl)phenyl)carbamoyl)cyclohexyl methylcarbamate]",≤ 250 nM
16,"COc1ccc([C@H]2CC[C@H](CN(c3cccc(-c4cnc(C5CC5)s4)c3)C(=O)[C@H]3CC[C@H](NC(=O)OCCO)CC3)CC2)cc1C [Compound 28, 2-Hydroxyethyl (trans-4-((3-(2-cyclopropylthiazol-5-yl)phenyl)((trans-4-(4-methoxy-3-methylphenyl)cyclohexyl)methyl)carbamoyl)cyclohexyl)carbamate]",≤ 250 nM
17,"CNC(=O)O[C@]1(C)CC[C@H](C(=O)N(C[C@H]2CC[C@H](c3ccc(OC)c(C)c3)CC2)c2cccc(-c3cnn(C(C)C)c3)c2)CC1 [Compound 5.53, cis-4-((3-(1-Isopropyl-1H-pyrazol-4-yl)phenyl)(trans-4-(4-methoxy-3-methylphenyl)cyclohexyl)methyl)carbamoyl)-1-methylcyclohexyl methylcarbamate]",≤ 250 nM
18,"CCCCOC(=O)[C@H]1CC[C@H](C(=O)N(C[C@H]2CC[C@H](c3ccc(OC)c(C)c3)CC2)c2cccc(-c3cnn(C4CC4)c3)c2)CC1 [Compound 22.02, trans-Butyl 4-((3-(1-cyclopropyl-1H-pyrazol-4-yl)phenyl)((trans-4-(4-methoxy-3-methylphenyl)cyclohexyl)methyl)carbamoyl) cyclohexanecarboxylate]",≤ 250 nM
19,"COc1ccc([C@H]2CC[C@H](CN(c3cccc(-c4cnn(C(C)C)c4)c3)C(=O)[C@H]3CC[C@H](NC(=O)OC(C)(C)C)CC3)CC2)cc1C [Compound 18.16, tert-Butyl (trans-4-((3-(1-isopropyl-1H-pyrazol-4-yl)phenyl)((trans-4-(4-methoxy-3-methylphenyl)cyclohexyl)methyl)carbamoyl)cyclohexyl) carbamate]",≤ 250 nM
20,"COc1ccc([C@H]2CC[C@H](CN(c3cc(-c4coc(C5CC5)n4)ccn3)C(=O)[C@H]3CC[C@H](OC(=O)NC4CCN(C)CC4)CC3)CC2)nc1C [Compound 6.79, trans-4-((4-(2-Cyclopropyloxazol-4-yl)pyridine-2-yl)((trans-4-(5-methoxy-6-methylpyridin-2-yl)cyclohexyl)methyl)carbamoyl)cyclohexyl (1-methylpiperidin-4-yl)carbamate]",≤ 250 nM
